The text below walks through data of PubChem BioAssay AID1949 (Southern Research Institute, 2009).

≈ marks a conversion by molar mass, not a printed value. Results filed as inconclusive are left out. Calls of active or inactive are those of the source. No rule for the calls is given here. A value given as a limit tells only on which side of the number the result lay.

The subject of the experiment is M. tuberculosis H37Rv growth inhibition. The experiment can be described thus: Mycobacterium tuberculosis H37Rv growth inhibition, cell based, confirmatory dose response (AID 1949).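 Also: bacteria grown 7 days with compound before Alamar blue readout.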
As to `Oc1ccc(-c2nc3cc4ccccc4cc3nc2-c2ccccc2)cc1`, the IC50 (commonly the concentration that inhibits the measured activity by half) was 0.96 µg/mL (≈ 2.76 µM).
For `Cc1cccc(C(=O)NC(=S)Nc2ccc([N+](=O)[O-])cc2O)c1` the value was 0.19 µg/mL (≈ 0.573 µM); for `CC(=O)Oc1cc2c(cc1Cl)C1(CC(c3ccccc3Cl)O2)CC(C)(C)NC(=S)N1` (centres undefined), 2.84 µg/mL (≈ 6.1 µM); for `CC(=O)c1ccc(NC(=O)NC(C)C23CC4CC(CC(C4)C2)C3)cc1` (centres undefined), 19 µg/mL (≈ 55.8 µM).
Under `COC(=O)Cc1c(C)c2ccc(OCC(=O)c3ccc(Cl)s3)cc2oc1=O` stands 2.49 µg/mL (≈ 6.12 µM).
With `Clc1ccc(OCCCn2ccnc2)cc1Cl`, the half-inhibitory concentration (IC50) is 3.98 µg/mL (≈ 14.7 µM).
Under `Cc1ccc2c(c1)c1c(n2CC(O)CN2CCCCCC2)C(=O)CCC1` (centres undefined) stands 6.18 µg/mL (≈ 17.4 µM); under `CC1(C)C=Cc2c(nc3ccccc3c2NCc2ccccc2)C1`, 1.47 µg/mL (≈ 4.68 µM).
For `COc1ccc(Cl)cc1C(=O)Nc1ccc(N2CCN(Cc3ccccc3F)CC2)cc1` the value was 3.36 µg/mL (≈ 7.4 µM); for `COC(=O)C(C)Oc1ccc2c(=O)c(-c3ccc(Br)cc3)c(C)oc2c1` (centres undefined), 2.42 µg/mL (≈ 5.8 µM).
As to `O=C(Nc1cccc([N+](=O)[O-])c1)Nc1ccc(Cl)c(C(F)(F)F)c1`, the IC50 was 0.19 µg/mL (≈ 0.528 µM).
`Cc1ccc(Cl)cc1N1CCN(CC(O)COc2ccc(Cl)cc2Cl)CC1` (centres undefined): the IC50 was 6.67 µg/mL (≈ 15.5 µM).
On to `O=[N+]([O-])c1ccc(O)c(-c2nc(-c3cccs3)c(-c3cccs3)[nH]2)c1`, for which the IC50 was 97 µg/mL (≈ 263 µM).
Under `O=C(CS(=O)(=O)c1ccc2ccccc2c1)Nc1ccccc1Cl` stands 4.48 µg/mL (≈ 12.5 µM).
For the compound `CC(C)(C)c1ccc(OCCn2c(N)nc3ccccc32)cc1`, the IC50 was 1.61 µg/mL (≈ 5.2 µM).
Under `O=C(CC1(O)C(=O)N(CCc2ccccc2)c2ccc(Cl)cc21)c1ccc2c(c1)OCCO2` (centres undefined) stands 7.71 µg/mL (≈ 16.6 µM).
For `Cc1ccc(SCC(=O)Nc2cccc(C)c2)cc1`, the IC50 was 10.9 µg/mL (≈ 40.2 µM).
Under `Cn1c(NC(=O)c2ccccc2)nc2ccccc21` stands 0.57 µg/mL (≈ 2.27 µM); under `Cc1c(Cl)ccc2c(=O)c(C(=O)O)c[nH]c12`, 29.6 µg/mL (≈ 125 µM); under `CSc1ncc(C(=O)NCc2ccco2)cn1`, 3.04 µg/mL (≈ 12.2 µM).
Regarding `O=C(CCNc1cccc(F)c1)c1ccccc1`, the IC50 is 8.2 µg/mL (≈ 33.7 µM).
Turning to `O=C(NCc1ccccc1)c1cc2cc(Cl)cc(Cl)c2oc1=O`, the IC50 was > 50 µg/mL (inactive).
Regarding `COc1ccc(-c2cc(C(=O)Nc3ccc(C(=O)N4CCOCC4)cc3)c3cc(C)ccc3n2)cc1`, the IC50 is > 50 µg/mL (inactive).
For `Clc1ccc(OCCCCn2ccnc2)c(Br)c1` the value was 1.51 µg/mL (≈ 4.58 µM).
With `CC(NC(=S)NC(=O)c1ccc(-c2ccccc2)cc1)c1ccccc1` (centres undefined), the concentration for half-maximal inhibition (IC50) is 5.85 µg/mL (≈ 16.2 µM).
Under `CC1(C)Oc2ccc3ccc(=O)oc3c2C(C=O)=C1Cl` stands 1.03 µg/mL (≈ 3.54 µM); under `CCCOc1ccc(Nc2cc(C)nc3ccc(Cl)cc23)cc1`, 0.74 µg/mL (≈ 2.26 µM); under `C(=NN1CCN(C2c3ccccc3-c3ccccc32)CC1)c1ccncc1`, 11.2 µg/mL (≈ 31.5 µM).
Under `O=C(Nc1ccccc1-c1ccccc1)C(Cl)(Cl)Cl` stands 2.44 µg/mL (≈ 7.76 µM).
